Results published in patent US7759101B2, “Ginsenoside glycosidases hydrolyzing ginsenoside sugar moieties and uses thereof” (priority 2000, dated 2010).

Tests used:
[1] = system: ginsenoside glycosidases from A. oryzae; test: Hydrolysis of ginsenosides with crude ginsenoside glycosidases from A. oryzae, TLC; assay type: biochemical, Aspergillus oryzae; conditions: pH 5.0, 30° C., 18 hours
Method: Aspergillus oryzae FFCCDL-39 g (available from Food Fermentation Culture Collection of Dalian Institute of Light Industry) was cultured with stirring in a medium containing 1% ginseng extracts and 3% wheat bran extracts at 30° C. for 64 hours. Cells were removed by centrifugation, after which (NH4)2SO4 powder was added to 2000 ml of the cell-free supernatant with stirring to 65% saturation. The solution was stored overnight at 4° C. and precipitated proteins were collected by centrifugation, resuspended in 80 ml of distilled water and dialyzed against 0.01M acetate buffer pH 5. Insolubles were removed by centrifugation, and the solution was adjusted to 200 ml with 0.01 M acetate buffer pH 5. The crude enzyme solution may be used to hydrolyze ginsenosides or to purify the enzymes.
Each 100 mg of ginsenosides Rb1, Rb2, Rc Re and Rd and each 10 mg of ginsenoside Rg3 and Rg2 were dissolved in separate tubes containing 10 ml of 0.01M acetate buffer pH 5. 10 ml of the crude enzyme solution obtained as above was added to each tube and allowed to react at 30° C. for 18 hours. Then 10 ml of n-butanol was added to stop the reactions. The products were measured by thin layer chromatography (TLC) (Silica gel 60-F254, Merck; chloroform:methanol:water 70:30:5). […]

[2] = system: Cellulose β-glucosidase of Clostridium and Bacillus (EC 3.2.1.21); test: Comparison: hydrolysis of ginsenosides with cellulose β-glucosidase of Clostridium and Bacillus; assay type: biochemical, Clostridium thermocopiriae and Bacillus sp. AX; conditions: substrate 0.5%, pH 5.0, 30° C., 18 hours
Description: (§1) To observe the differences between the ginsenoside glycosidases of the invention and known exo-cellulases, the ginsenoside glycosidases of the invention were compared with cellulose β-glucosidase (E.C. 3.2.1.21) in two reactions with 0.5% ginsenosides Rb1 or Rd as substrate.
Cellulose β-glucosidases (EC 3.2.1.21) from Clostridium thermocopiriae and Bacillus sp. AX cannot hydrolyze any glycosides of ginsenosides. The cellulose β-glucosidase from almond slightly hydrolyzes the C-20 glycoside of Rb1, Rb2 and Rc to give ginsenoside Rd, but it cannot hydrolyze the glucoside at C-3. Ginsenoside glycosidase II is similar to cellulose β-glucosidase from almond, but it only slightly hydrolyzes Rd. The properties of ginsenoside glycosidase III are totally different from those of cellulose β-glucosidases.

[3] = system: ginsenoside glycosidases from wheat bran; test: Hydrolysis of ginsenosides with ginsenoside glycosidases from wheat bran; assay type: biochemical; conditions: 10 ml of 1% ginsenoside substrate, 40° C., 20 hours
Method: 500 g of wheat bran was added to 2500 ml of 0.02 M acetate buffer pH 5 and extracted at 40° C. for 2 hours. 2000 ml of supernatant were obtained by filtration to which (NH4)2SO4 was added gradually with stirring until 70% saturation. The mixture stand at 4° C. overnight. Protein pellets were collected by centrifugation and redissolved in 80 ml of distilled water and dialyzed against 0.02 M acetate buffer pH 5.0. Insolubles were removed by centrifugation and the supernatant was adjusted to a volume of 200 ml to obtain the crude enzyme solution.
10 ml of the enzyme solution was allowed to react with 10 ml of 1% ginsenoside substrate at 40° C. for 20 hours.

[4] = system: ginsenoside glycosidase II; test: Hydrolysis of ginsenosides with ginsenoside glycosidase II (Fraction 54); assay type: biochemical, Aspergillus niger; conditions: substrate 0.5%, pH 5.0, 30° C., 18 hours
Method: (§2) 10 ml of the enzyme solution obtained in 1.1 was subjected to a DEAE-Cellulose DE-52 column (Pharamcia, 1.5×6.7 cm) to absorb the enzyme protein. The column was then eluted with a NaCl gradient (0.06, 0.12, 0.18, 0.24, 0.3, 0.4, 0.5 and 0.6M).
Fraction 54 which was eluted with 0.18 M NaCl from the DEAE-Cellulose column was lyophilized and appeared as a single dot when running on a SDS-polyacrylamide gel with a molecular weight of 90,000 Daltons. Therefore, it represented a purified enzyme and designated as ginsenoside glycosidase II.
as §1

[5] = system: Cellobiose-producing enzyme from Clostridium; test: Comparison: hydrolysis of ginsenosides with cellobiose-producing enzyme; assay type: biochemical, Clostridium thermocopiriae; conditions: substrate 0.5%, pH 5.0, 30° C., 18 hours
Description: as §1
An exo-cellulase from Clostridium thermocopiriae (cellobiose-producing enzyme) cleaves cellodextrin to give cellobiose, but cannot hydrolyze diglucosidic bond at C-3 of ginsenoside Rd. So it is completely different from ginsenoside glycosidase III. Therefore, the ginsenoside glycosidases of the invention are enzymes different from known cellulose β-glucosidases and cellobiose-producing enzymes.

[6] = system: ginsenoside glycosidase I from ginseng plants; test: Hydrolysis of ginsenosides with fraction 52 (ginsenoside glycosidase I) from ginseng plant; assay type: biochemical; conditions: Fraction 52; substrate 0.5%; 50° C., pH 5.0, 18 hours
Method: 200 g of fresh ginseng root was cut into pieces and added to 600 ml of 0.02 M acetate buffer pH 5. Supernatant was obtained by filtration after the mixture stand at 40° C. for 2 hours. To the supernatant (NH4)2SO4 was added gradually until 70% saturation and the mixture stand overnight at 4° C. Then protein pellets were collected by centrifugation and redissolved in 15 ml of distilled water. The solution was dialyzed against 0.02 M Tris-HCl pH 7.4. Insolubles were removed by centrifugation and the volume of the supernatant was adjusted to 20 ml.
5 ml of the enzyme solution was subjected to a DEAE-Cellulose DE-25 column (Whatman, 1.4×6.7 cm). The column was eluted with a KCl gradient (0.06, 0.12, 0.18 and 0.24 M) in 0.02 M Tris-HCl pH 7.4. After elution, each fraction was tested for the activity of hydrolyzing ginsenosides. […] Fraction 52 can also hydrolyze the glucosidic bond at the twentieth carbon atom of Rb and Rc to give ginsenoside F2.

[7] = system: ginsenoside glycosidase I; test: Hydrolysis of ginsenosides with Fraction 36 (ginsenoside glycosidase I); assay type: biochemical, Aspergillus niger; conditions: pH 5.0, 30° C.
Method: as §2
Fractions 36 and 54 from the DEAE-Cellulose column appeared as one dot on a SDS-polyacrylamide gel, representing the purified enzymes.
Fraction 36 which was eluted with 0.12 M NaCl from the DEAE-Cellulose column was lyophilized and appeared as a single dot with a molecular weight of 51,000 Daltons when running on a SDS-polyacrylamide gel.
as §1

[8] = system: Almond cellulose β-glucosidase(EC 3.2.1.21); test: Comparison: hydrolysis of ginsenosides with almond cellulose β-glucosidase; assay type: biochemical; conditions: substrate 0.5%, pH 5.0, 30° C., 18 hours
Description: as §1

[9] = Fraction 36, substrates Rb1, Rb2, Rc, Rd 0.5%, Rg3, F2, Rh2, C—K, Rg2 0.05%
[10] = Table 8, ginsenoside glycosidase I, substrate 0.5%, 18 hours

SMILES | Percentage of C—K in the reaction product [1] | Percentage of F2 in the reaction product [1] | Percentage of Rd in the reaction product [1] | Percentage of aglycone in the reaction product [1] | Percentage of Rb1 in the reaction product [2] | Percentage of F2 in the reaction product [3] | Percentage of Rd in the reaction product [3] | Percentage of Rd in the reaction product [4] | Percentage of Rg3 in the reaction product [4] | Percentage of Rb1 in the reaction product [5] | Percentage of F2 in the reaction product [6] | Percentage of Rd in the reaction product [6] | Percentage of C—K in the reaction product [7, 9] | Percentage of F2 in the reaction product [7, 9] | Percentage of aglycone in the reaction product [7, 9] | Percentage of C—K in the reaction product [7, 10] | Percentage of F2 in the reaction product [7, 10] | Percentage of aglycone in the reaction product [7, 10] | Percentage of Rb1 in the reaction product [8] | further results
CC(C)=CCC[C@](C)(O[C@@H]1O[C@H](CO[C@@H]2O[C@H](CO)[C@@H](O)[C@H](O)[C@H]2O)[C@@H](O)[C@H](O)[C@H]1O)[C@H]1CC[C@]2(C)[C@@H]1[C@H](O)C[C@@H]1[C@@]3(C)CC[C@H](O[C@@H]4O[C@H](CO)[C@@H](O)[C@H](O)[C@H]4O[C@@H]4O[C@H](CO)[C@@H](O)[C@H](O)[C@H]4O)C(C)(C)[C@@H]3CC[C@]12C [Rb1, ginsenoside Rb1] | 45% | 38% | 20% | 2% | 100% | 55% | 40% | 90% | 5% | 100% | 70% | 30% | 49% | 38% | 2% | 49% | 38% | 2% | 80% | Percentage of Rd in the reaction product [7, 9]: 8%; Percentage of Rh2 in the reaction product [7, 9]: 1%; Percentage of Rd in the reaction product [7, 10]: 8%; Percentage of Rh2 in the reaction product [7, 10]: 1%; Percentage of Rd in the reaction product [8]: 20%
CC(C)=CCC[C@](C)(O[C@@H]1O[C@H](CO)[C@@H](O)[C@H](O)[C@H]1O)[C@H]1CC[C@]2(C)[C@@H]1[C@H](O)C[C@@H]1[C@@]3(C)CC[C@H](O[C@@H]4O[C@H](CO)[C@@H](O)[C@H](O)[C@H]4O[C@@H]4O[C@H](CO)[C@@H](O)[C@H](O)[C@H]4O)C(C)(C)[C@@H]3CC[C@]12C [Rd, ginsenoside Rd] | 29% | 40% | 25% | 5% | 100% | 40% | 60% | 90% | 5% | 100% | 40% | 60% | 25% | 50% | 5% | 25% | 50% | 5% | 100% | Percentage of Rg3 in the reaction product [1]: 1%
